Reference: PubChem BioAssay (NCI)
Several values for one entry are separate records, joined by “and”; a condition that tells them apart may be missing. Equal values may be shown once.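 Briefly, cells in 96-well plates were exposed to five compound concentrations for 48 h, and endpoints were estimated by linear interpolation. Abbreviation: GI50, concentration required for 50% inhibition of growth. TGI denotes the concentration required for complete inhibition of growth.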

How the values were obtained:
Test in all cases: NCI-60 cell line screen, 48 h
SF-295 CNS = test system: SF-295 CNS
SK-MEL-2 melanoma = test system: SK-MEL-2 melanoma
SR leukemia = test system: SR leukemia
NCI-H226 lung = test system: NCI-H226 lung
HCC-2998 colon = test system: HCC-2998 colon
RXF 393 renal = test system: RXF 393 renal
IGROV1 ovarian = test system: IGROV1 ovarian
SW-620 colon = test system: SW-620 colon
M14 melanoma = test system: M14 melanoma
SK-MEL-28 melanoma = test system: SK-MEL-28 melanoma

SMILES | GI50 (SF-295 CNS) [µM] | TGI (SF-295 CNS) | GI50 (SK-MEL-2 melanoma) | TGI (SK-MEL-2 melanoma) [µM] | GI50 (SR leukemia) [µM] | TGI (SR leukemia) | GI50 (NCI-H226 lung) [µM] | TGI (NCI-H226 lung) | GI50 (HCC-2998 colon) [µM] | TGI (HCC-2998 colon) [µM] | GI50 (RXF 393 renal) [µM] | TGI (RXF 393 renal) | GI50 (IGROV1 ovarian) [µM] | TGI (IGROV1 ovarian) | GI50 (SW-620 colon) [µM] | TGI (SW-620 colon) | GI50 (M14 melanoma) [µM] | TGI (M14 melanoma) | GI50 (SK-MEL-28 melanoma) | TGI (SK-MEL-28 melanoma)
O=C(O)C(O)C(O)C1[O][Sb][O]C1CO (stereo not given) | > 100 | > 100 µM | 85.8 µM and 36.8 µM | > 100 | > 100 | > 100 µM | > 100 | > 100 µM | > 100 | > 100 | > 100 | > 100 µM | > 100 | > 100 µM | > 100 | > 100 µM | > 100 | > 100 µM | > 100 µM and 13.7 µM | > 100 µM and 43.4 µM
Cc1ccc(S(=O)(=O)ON=C2CC(c3ccccc3)N(C)C(c3ccccc3)C2)cc1 (stereo not given) | – | 52.4 µM and 65.5 µM | – | 30 | – | 62.5 µM and 57.3 µM | – | 70.1 µM and 64 µM | – | 32.3 | – | 48 µM and 71.6 µM | – | 62.1 µM and 56.7 µM | – | 38.8 µM and 31.2 µM | – | 34.9 µM and 43.8 µM | – | 54.3 µM and 49 µM
C[C@@H]1CC[C@H]2C(CN3CCN(CC4=C(C(F)(F)F)O[C@@H]5O[C@@]6(C)CC[C@H]7[C@H](C)CC[C@@H]4[C@@]57OO6)CC3)=C(C(F)(F)F)O[C@@H]3O[C@@]4(C)CC[C@@H]1[C@]32OO4 | 5.01 | > 100 µM | 10.6 µM | > 100 | 1.89 | > 100 µM | 2.81 | > 100 µM | 10.5 | > 100 | 1.05 | > 54.3 µM | > 27.4 | > 100 µM | 1.12 | > 100 µM | 5.74 | > 100 µM | 9.96 µM | > 100 µM
Cc1ccc(Nc2ccnc(Nc3cccc(C(N)=O)c3)n2)cc1O | 7.69 | > 25 µM | 8.45 µM | > 25 | 11.3 | > 25 µM | 5.43 | > 23.7 µM | 12.6 | > 25 | 0.895 | 4.84 µM | 5.37 | 15.1 µM | 9.62 | > 25 µM | 5.87 | > 25 µM | 11.2 µM | > 25 µM
O=[N+]([O-])C(=C(c1ccccc1)c1ccccc1)[N+](=O)[O-] | – | 26.3 µM | – | 6.83 | – | 28.5 µM | – | 61.5 µM | – | 24 | – | 6.71 µM | – | 23.2 µM | – | 25.4 µM | – | 25.4 µM | – | 20.1 µM
N#CC(/C(=N\NC(N)=S)C(=O)NC1C2CC3CC(C2)CC1C3)c1ccc(Cl)cc1 (stereo not given) | – | > 100 µM | – | > 100 | – | > 100 µM | – | > 100 µM | – | > 100 | – | > 100 µM | – | > 100 µM | – | > 100 µM | – | > 100 µM | – | > 100 µM
CC(C)=CCC[C@](C)(O)[C@H]1CC[C@]2(C)[C@@H]1CC[C@@H]1[C@@]3(C)CC[C@H](OC(=O)CCC(=O)O)C(C)(C)[C@@H]3CC[C@]12C | 28.6 | 92.5 µM | 25.3 µM | 85.6 | 19.4 | 56.5 µM | 16.7 | 40.3 µM | 30.6 | > 100 | 17.4 | 85 µM | 18.5 | 72.7 µM | 35.4 | > 100 µM | 73.6 | > 100 µM | 16.9 µM | 34.8 µM
C1CCN2CC34CC(CC5CCCN(C6CCCC3N6)C54)C2C1 (stereo not given) | – | > 100 µM | – | > 100 | – | > 100 µM | – | > 100 µM | – | > 100 | – | > 100 µM | – | > 100 µM | – | > 100 µM | – | > 100 µM | – | > 100 µM
Cc1cc(C#Cc2ccccc2)ccc1-n1c(/C=C/c2ccc(O)cc2)nc2ccccc2c1=O | 2.85 | 13.6 µM | 1.93 µM | 5.76 | 2.45 | 29 µM | 3.99 | > 100 µM | 2.35 | 7.35 | 3.51 | > 100 µM | 20.6 | > 100 µM | 4.08 | > 100 µM | 3.56 | 15.1 µM | 4.54 µM | > 100 µM
O=C(Nc1ccc(-c2nc3ccc(NC(=O)c4ccc(Cl)cc4)cc3[nH]2)cc1)c1ccc(Cl)cc1 | 0.23 | 8.77 µM | 12.6 µM | 25.2 | 0.769 | 4.34 µM | 15.1 | 31.8 µM | 7.47 | 21.4 | 0.0186 | 1.93 µM | 6.73 | 19.6 µM | 2.35 | 8.46 µM | 5.28 | 18 µM | 2.78 µM | 14.9 µM
O=C(O)CCN1C(=O)/C(=C/C(Cl)=C/c2ccccc2)SC1=S | 2.7 | 8.05 µM | 2.16 µM | 6.27 | 0.929 | 5.47 µM | 6.46 | 95.9 µM | 1.88 | 3.38 | 1.69 | 3.38 µM | 2.42 | 6.98 µM | 2.3 | 6.32 µM | 2.24 | 8.32 µM | 2.11 µM | 5.33 µM
